This assay deals with P388. The assay can be described thus: Cytotoxicity against mouse P388 cells by microculture tetrazolium assay. It counts as functional, cell-based.

≈ marks a conversion by molar mass, not a printed value.

`CC(C)=CCC/C(C)=C/Cc1c2c(c(O)c3c(=O)c4c(oc13)-c1c(O)cc(O)c3c1C(C4)C(C)(C)O3)C=CC(C)(C)O2` (configuration not stated) [ARTOINDONESIANIN A] registered an IC50 of 21 µg/mL (≈ 36.8 µM).

Compound `COc1cc2oc3c(c(=O)c2c(O)c1/C=C/C(C)C)CC(C(C)(C)OO)Oc1cc(O)ccc1-3` (configuration not stated) [ARTOINDONESIANIN B] yielded an IC50 of 3.9 µg/mL (≈ 8.32 µM).

For orientation: IC50 means the concentration needed to halve the response being measured.

Source of the values: ChEMBL document CHEMBL1141828, “Artoindonesianins A and B, two new prenylated flavones from the root of Artocarpus champeden” (J Nat Prod, 1999).
